Organism: Rattus norvegicus
Experiment: Open TG-GATES - Regimen: Single
Assay type: toxicity, organism-based, Sprague-Dawley
Parameters: regimen Single, gender Male, age 6 weeks
Details: in vivo, po, 150 mg/kg, route gavage, dose level Middle; for APTT / Bas / Eos / Fbg / Hb / Ht / Lym / MCH / MCHC / MCV / Mono / Neu / PT / Plat / RBC / Ret / WBC: tissue Blood; for KIDNEY_L / KIDNEY_R / KIDNEY_TOTAL: tissue Kidney; for LIVER: tissue Liver; for A/G / ALP / ALT / AST / BUN / CRE / Ca / Cl / DBIL / GLC / IP / K / LDH / Na / PL / RALB / TBIL / TC / TG / TP / gamma-GTP: tissue Plasma

`CN1C(=O)OC(C)(C)C1=O` [TRIMETHADIONE] was tested, and the TERMINAL_BW (3 h) was 208.1 g, the APTT (3 h) was 15.9 s and the Bas (3 h) was 0%. The Eos (3 h) was 0.6%, the Fbg (3 h) was 262.2 mg/dL and the Hb (3 h) was 13.4 g/dL. It also gave a Ht (3 h) of 40.4%, a Lym (3 h) of 78.8% and an MCH (3 h) of 21.4 pg. The MCHC (3 h) was 33.2%, the MCV (3 h) was 64.6 fL and the Mono (3 h) was 2.4%. For the same molecule, the Neu (3 h) was 17.2%, the PT (3 h) was 13.5 s and the Plat (3 h) was 114.9 x10_4/uL. For the same molecule, the RBC (3 h) was 625.4 x10_4/ul, the Ret (3 h) was 7.7% and the WBC (3 h) was 81.5 x10_2/uL. For the same molecule, the KIDNEY_L (3 h) was 0.9 g, the KIDNEY_R (3 h) was 0.9 g and the KIDNEY_TOTAL (3 h) was 1.8 g. For the same molecule, the LIVER (3 h) was 9.1 g, the A/G (3 h) was 0.9 and the ALP (3 h) was 1472.2 IU/L. For the same molecule, the ALT (3 h) was 38.4 IU/L, the AST (3 h) was 70.6 IU/L and the BUN (3 h) was 10 mg/dL. It also gave a CRE (3 h) of 0.2 mg/dL, a Ca (3 h) of 10.6 mg/dL and a Cl (3 h) of 108 meq/L. The DBIL (3 h) was 0.004 mg/dL, the GLC (3 h) was 177.8 mg/dL and the IP (3 h) was 8.3 mg/dL. The K (3 h) was 4.2 meq/L, the LDH (3 h) was 106 IU/L and the Na (3 h) was 141 meq/L. The PL (3 h) was 144.4 mg/dL, the RALB (3 h) was 2.5 g/dL and the TBIL (3 h) was 0.056 mg/dL. For the same molecule, the TC (3 h) was 75 mg/dL, the TG (3 h) was 82 mg/dL and the TP (3 h) was 5.3 g/dL. It also gave a gamma-GTP (3 h) of 1 IU/L, a TERMINAL_BW (6 h) of 209 g and an APTT (6 h) of 16.3 s. For the same molecule, the Bas (6 h) was 0.2%, the Eos (6 h) was 1% and the Fbg (6 h) was 267 mg/dL. It also gave a Hb (6 h) of 13.4 g/dL, a Ht (6 h) of 40.1% and a Lym (6 h) of 80.8%. The MCH (6 h) was 21.7 pg, the MCHC (6 h) was 33.3% and the MCV (6 h) was 65.3 fL. It also gave a Mono (6 h) of 2.4%, a Neu (6 h) of 15.2% and a PT (6 h) of 13.8 s. It also gave a Plat (6 h) of 126.8 x10_4/uL, an RBC (6 h) of 614.2 x10_4/ul and a Ret (6 h) of 8.4%. It also gave a WBC (6 h) of 94.5 x10_2/uL, a KIDNEY_L (6 h) of 0.9 g and a KIDNEY_R (6 h) of 0.9 g. For the same molecule, the KIDNEY_TOTAL (6 h) was 1.8 g, the LIVER (6 h) was 8.6 g and the A/G (6 h) was 0.9. The ALP (6 h) was 1642.2 IU/L, the ALT (6 h) was 36.2 IU/L and the AST (6 h) was 72.2 IU/L. The BUN (6 h) was 8.6 mg/dL, the CRE (6 h) was 0.2 mg/dL and the Ca (6 h) was 10.6 mg/dL. For the same molecule, the Cl (6 h) was 107.4 meq/L, the DBIL (6 h) was 0.004 mg/dL and the GLC (6 h) was 175.8 mg/dL. It also gave an IP (6 h) of 8.9 mg/dL, a K (6 h) of 4.3 meq/L and an LDH (6 h) of 79.4 IU/L. It also gave a Na (6 h) of 140.6 meq/L, a PL (6 h) of 139.4 mg/dL and an RALB (6 h) of 2.4 g/dL. The TBIL (6 h) was 0.062 mg/dL, the TC (6 h) was 76 mg/dL and the TG (6 h) was 54.6 mg/dL. It also gave a TP (6 h) of 5.2 g/dL, a gamma-GTP (6 h) of 1 IU/L and a TERMINAL_BW (9 h) of 204.4 g. It also gave an APTT (9 h) of 17.8 s, a Bas (9 h) of 0% and an Eos (9 h) of 1%. The Fbg (9 h) was 276 mg/dL, the Hb (9 h) was 13.2 g/dL and the Ht (9 h) was 39.8%. The Lym (9 h) was 76%, the MCH (9 h) was 21.7 pg and the MCHC (9 h) was 33.2%. The MCV (9 h) was 65.5 fL, the Mono (9 h) was 2.2% and the Neu (9 h) was 20.8%. The PT (9 h) was 14 s, the Plat (9 h) was 119.5 x10_4/uL and the RBC (9 h) was 608.8 x10_4/ul. For the same molecule, the Ret (9 h) was 8.3%, the WBC (9 h) was 84 x10_2/uL and the KIDNEY_L (9 h) was 0.9 g. The KIDNEY_R (9 h) was 0.9 g, the KIDNEY_TOTAL (9 h) was 1.8 g and the LIVER (9 h) was 7.8 g. The A/G (9 h) was 0.9, the ALP (9 h) was 1417.8 IU/L and the ALT (9 h) was 33.8 IU/L. It also gave an AST (9 h) of 72.2 IU/L, a BUN (9 h) of 7.2 mg/dL and a CRE (9 h) of 0.2 mg/dL. The Ca (9 h) was 10.3 mg/dL, the Cl (9 h) was 109.8 meq/L and the DBIL (9 h) was 0 mg/dL. The GLC (9 h) was 164.4 mg/dL, the IP (9 h) was 9.9 mg/dL and the K (9 h) was 3.9 meq/L. For the same molecule, the LDH (9 h) was 118.2 IU/L, the Na (9 h) was 142.4 meq/L and the PL (9 h) was 137.4 mg/dL. It also gave an RALB (9 h) of 2.5 g/dL, a TBIL (9 h) of 0.066 mg/dL and a TC (9 h) of 74.4 mg/dL. For the same molecule, the TG (9 h) was 32.4 mg/dL, the TP (9 h) was 5.3 g/dL and the gamma-GTP (9 h) was 1 IU/L. It also gave a TERMINAL_BW (24 h) of 217.7 g, an APTT (24 h) of 20.8 s and a Bas (24 h) of 0%. The Eos (24 h) was 1%, the Fbg (24 h) was 279.8 mg/dL and the Hb (24 h) was 13.8 g/dL. The Ht (24 h) was 41.1%, the Lym (24 h) was 78.2% and the MCH (24 h) was 21.7 pg. The MCHC (24 h) was 33.5%, the MCV (24 h) was 64.9 fL and the Mono (24 h) was 2.6%. It also gave a Neu (24 h) of 18%, a PT (24 h) of 13.4 s and a Plat (24 h) of 112.6 x10_4/uL. The RBC (24 h) was 634.2 x10_4/ul, the Ret (24 h) was 6.8% and the WBC (24 h) was 104 x10_2/uL. For the same molecule, the KIDNEY_L (24 h) was 0.9 g, the KIDNEY_R (24 h) was 0.9 g and the KIDNEY_TOTAL (24 h) was 1.9 g. It also gave an LIVER (24 h) of 9.6 g, an A/G (24 h) of 0.9 and an ALP (24 h) of 2022.8 IU/L. For the same molecule, the ALT (24 h) was 50 IU/L, the AST (24 h) was 81 IU/L and the BUN (24 h) was 15.4 mg/dL. It also gave a CRE (24 h) of 0.2 mg/dL, a Ca (24 h) of 10.7 mg/dL and a Cl (24 h) of 104.6 meq/L. The DBIL (24 h) was 0.006 mg/dL, the GLC (24 h) was 171.6 mg/dL and the IP (24 h) was 7.9 mg/dL. It also gave a K (24 h) of 4.3 meq/L, an LDH (24 h) of 116.2 IU/L and a Na (24 h) of 143 meq/L. The PL (24 h) was 148.2 mg/dL, the RALB (24 h) was 2.6 g/dL and the TBIL (24 h) was 0.056 mg/dL. The TC (24 h) was 76.4 mg/dL, the TG (24 h) was 83 mg/dL and the TP (24 h) was 5.6 g/dL. The gamma-GTP (24 h) was 1 IU/L.

— ChEMBL document CHEMBL3885861, “Open TG-GATES”
